Laboratory results reported in patent publication US12558345B2, “CHK1/2 inhibitors for use in the treatment of neuroblastomas and/or soft tissue sarcomas” (Eli Lilly and Company, priority 2015, dated 2026).
Where a name gives a salt, the structure may show the parent alone. Read-outs that look alike come from different tables or passages of the source.

How the values were obtained:
[1] = system: Thirty solid tumor cell lines from 13 tumor histotypes; test: Monolayer Proliferation and Cytotoxicity Assay (Oncotest, modified PI assay); type: cell-based; conditions: 96 h, 4 days of treatment, PI fluorescence, read-out: EC50, growth inhibition of the majority of the tumor cell lines
Description: One measure of potency of a CHK1 inhibitor is its ability to inhibit the proliferation of cancer cells in culture due to uncontrolled replication origin activation. (Conti et al. Cell Cycle 6: 2760-2767, 2007) Determination of CHK1 inhibitor antiproliferative activity in cell lines derived from a broad range of tumor types is indicative of which tumor types may be clinically responsive to chemotherapy with CHK1 inhibitors. The following described cellular proliferation assay is run at Oncotest, GmbH in Germany. Thirty solid tumor cell lines are derived from 13 different tumor histotypes, each represented by 1 to 6 different cell lines (Oncotest, GmbH). […] Briefly, adherent cells are harvested from exponential phase cultures by trypsinization, counted and plated in 96 well flat-bottomed microtiter plates at a cell density depending on the cell line (4.000-20.000 cells/well). […] Finally, PI fluorescence is measured using the Cytofluor 4000 microplate reader (excitation k=530 nm, emission k=620 nm) to determine the total viable cell number. Growth inhibition is expressed as Test/Control×100 (% T/C) values. Based on the T/C values, relative IC50 values are determined using non-linear regression (log[conc. of inhibitor] versus response (% T/C)).

[2] = system: ST0001 LMS patient-derived xenograft; test: Xenograft Tumor Model ST0001; type: in vivo, mouse; conditions: comparator day 19, p-value 0.247
Method: (§1) For all “ST” models (encompassing RMS and LMS), patient-derived xenografts are established from viable human tumor tissue and are serially passaged in animals a limited number of times to maintain tumor heterogeneity. In subcutaneous models, athymic nude mice (Crl:NU(NCr)-Foxn1nu) or CB-17 SCID mice (CRL-CB17/Icr-Prkdcscid/IcrIcoCrl) are injected or implanted unilaterally into the flank with tumor fragments harvested from host animals, each implanted from a specific passage lot. For all studies, measure tumor growth and body weight twice per week beginning on the seventh day after implantation. When tumor size reaches 150-300 mm^3, randomize animals and group into groups of 4-7 animals. Prepare test compound in an appropriate vehicle (e.g. vehicle can be 20% Captisol® in sterile water) and administer subcutaneously for three consecutive days followed by a four day dosing holiday and repeat for a minimum of four weeks. Tumor response is determined by tumor volume measurement performed twice per week during the course of treatment.

[3] = system: Osteosarcoma xenograft models; test: Sarcoma xenograft models by tumor subtype: Osteosarcoma; type: in vivo, mouse; conditions: age of patients 11-19 years
Method: The efficacy of 5-(5-(2-(3-aminopropoxy)-6-methoxyphenyl)-1H-pyrazol-3-ylamino)pyrazine-2-carbonitrile methanesulfonic acid monohydrate is measurable in vivo in mouse models of neuroblastomas and human pediatric and adult sarcomas. 5-(5-(2-(3-Aminopropoxy)-6-methoxyphenyl)-1H-pyrazol-3-ylamino)pyrazine-2-carbonitrile methanesulfonic acid monohydrate (10 mg/kg) can be administered subcutaneously to nude mice bearing either cell-derived xenografts (CDX) or patient-derived xenografts (PDX) of human rhabdomyosarcoma, desmoplastic small round cell tumor (DSRCT), osteosarcoma, and Ewing's sarcoma using a 3 day on, 4 day off b.i.d. dosing schedule. Tumor volume and body weight can be measured two times per week. Tumor-specific parameters can be evaluated by immumohistochemistry. […]
(§2) For all “ST” models (encompassing RMS and LMS), patient-derived xenografts are established from viable human tumor tissue and are serially passaged in animals a limited number of times to maintain tumor heterogeneity. […] Tumor response is determined by tumor volume measurement performed twice per week during the course of treatment.

[4] = system: KELLY human NBM cancer cell xenograft; test: Xenograft Tumor Model KELLY; type: in vivo, mouse; conditions: comparator day 49, p-value <0.001
Method: The following protocol can be used to measure reductions in tumor volume in response to an active pharmaceutical ingredient. Expand human NBM cancer cells SH-SY5Y (ATCC, #CRL-2226) in culture, harvest, and inject 5×10^6 cells in 200 μL of 1:1 solution of HBSS and Matrigel® subcutaneously into the right rear flank of female CD-1 nu/nu mice (20-24 g, Charles River Laboratories). Expand human NBM cancer cells KELLY (Sigma-#92110411) in culture, harvest, and inject 5×10^6 cells in 200 μL of 1:1 solution of HBSS and Matrigel® subcutaneously into the right rear flank of female CB-17 SCID mice (20-24 g, Charles River Laboratories). Expand human NBM cancer cells IMR-32 (ATCC, #CCL-127) in culture, harvest, and inject 5×10^6 cells in 200 μL of 1:1 solution of HBSS and Matrigel® subcutaneously into the right rear flank of female CB-17 SCID mice (20-24 g, Charles River Laboratories).
as §2

[5] = system: ST658 LMS patient-derived xenograft; test: Xenograft Tumor Model ST658; type: in vivo, mouse; conditions: comparator day 16, p-value 0.592
Method: as §1

SJCRH-30 RMS xenograft = type: in vivo; conditions: for % T/C: SJCRH-30, RMS
Method: Expand human RMS cancer cells SJCRH-30 (St. Jude Children's Research Hospital) in culture, harvest, and inject 5×10^6 cells in 200 μL of HBSS subcutaneously into the right rear flank of female athymic nude mice (20-22 g, Harlan Laboratories).
The vehicle used in this study is 20% Captisol® in sterile water and is administered subcutaneously for three consecutive days followed by a four day dosing holiday and repeated for a minimum of four weeks. […] The treatment period lasts 4 weeks.

Compound	EC50 [1] [µM]	% T/C [2] [%]	Result of Treatment: Stable Disease (models) [3]	% Regression [4] [%]	% T/C [5] [%]	% T/C (SJCRH-30 RMS xenograft; comparator day 46) [%]	% T/C (SJCRH-30 RMS xenograft; comparator day 56) [%]	tumor response as a single agent (SJCRH-30 RMS xenograft; SJCRH-30, SC three days on, four day holiday, 4 weeks, tumor regrowth occurs from day 38)	effect on acquired resistance in SJCRH30 xenografts (SJCRH-30 RMS xenograft; combination with doxorubicin, ifosfamide, or irinotecan)
COc1cccc(OCCCN)c1-c1cc(Nc2cnc(C#N)cn2)n[nH]1 [Example 2, 5-(5-(2-(3-Aminopropoxy)-6-methoxyphenyl)-1H-pyrazol-3-ylamino)pyrazine-2-carbonitrile dihydrogen chloride salt]	< 0.02	–	–	–	–	–	–	–	–
COc1cccc(OCCCN)c1-c1cc(Nc2cnc(C#N)cn2)n[nH]1 [Example 5, 5-(5-(2-(3-Aminopropoxy)-6-methoxyphenyl)-1H-pyrazol-3-ylamino)pyrazine-2-carbonitrile methanesulfonic acid monohydrate]	–	292	1/4 Stable Disease	−88	137	0.1	58	initial complete response until day 38	appears to circumvent the acquired resistance
